The values that follow come from PubChem BioAssay AID1259407 (Chemical Carcinogenesis Research Information System (CCRIS), 2018).

Activity calls are given as the source filed them. The rule behind the calls is not given here.

The subject of this series is CCRIS mutagenicity, Ames/micronucleus/aberration tests. Description: CCRIS mutagenicity studies.
Setting [1] is: Test System: AMES SALMONELLA TYPHIMURIUM, Strain/Indicator: TA98, Metabolic Activation: NONE, Method: STANDARD PLATE.
Where [2] appears, read: Test System: AMES SALMONELLA TYPHIMURIUM, Strain/Indicator: TA100, Metabolic Activation: NONE, Method: STANDARD PLATE.
Setting [3] is: Test System: AMES SALMONELLA TYPHIMURIUM, Strain/Indicator: TA102, Metabolic Activation: NONE, Method: STANDARD PLATE.

In the case of `O=C1c2ccc3nc(-c4ccccc4)sc3c2C(=O)c2ccc3nc(-c4ccccc4)sc3c21`, the mutagenic call (Test System: AMES SALMONELLA TYPHIMURIUM, Strain/Indicator: TA98, Metabolic Activation: HAMSTER, LIVER, S-9, AROCLOR 1254 (10%), Method: STANDARD PLATE) was “inactive; negative”; the mutagenic call under setting [1] was “inactive; negative”; the mutagenic call (Test System: AMES SALMONELLA TYPHIMURIUM, Strain/Indicator: TA98, Metabolic Activation: RAT, LIVER, S-9, AROCLOR 1254 (10%), Method: STANDARD PLATE) is “inactive; negative”; the mutagenic call (Test System: AMES SALMONELLA TYPHIMURIUM, Strain/Indicator: TA100, Metabolic Activation: HAMSTER, LIVER, S-9, AROCLOR 1254 (10%), Method: STANDARD PLATE) was “inactive; negative”; the mutagenic call under setting [2] is “inactive; negative”; the mutagenic call (Test System: AMES SALMONELLA TYPHIMURIUM, Strain/Indicator: TA100, Metabolic Activation: RAT, LIVER, S-9, AROCLOR 1254 (10%), Method: STANDARD PLATE) is “inactive; negative”. For the same molecule, the mutagenic call (Test System: AMES SALMONELLA TYPHIMURIUM, Strain/Indicator: TA1535, Metabolic Activation: HAMSTER, LIVER, S-9, AROCLOR 1254 (10%), Method: STANDARD PLATE) was “inactive; negative”; the mutagenic call (Test System: AMES SALMONELLA TYPHIMURIUM, Strain/Indicator: TA1535, Metabolic Activation: NONE, Method: STANDARD PLATE) is “inactive; negative”; the mutagenic call (Test System: AMES SALMONELLA TYPHIMURIUM, Strain/Indicator: TA1535, Metabolic Activation: RAT, LIVER, S-9, AROCLOR 1254 (10%), Method: STANDARD PLATE) was “inactive; negative”; the mutagenic call (Test System: AMES SALMONELLA TYPHIMURIUM, Strain/Indicator: TA1537, Metabolic Activation: HAMSTER, LIVER, S-9, AROCLOR 1254 (10%), Method: STANDARD PLATE) is “inactive; negative”; the mutagenic call (Test System: AMES SALMONELLA TYPHIMURIUM, Strain/Indicator: TA1537, Metabolic Activation: NONE, Method: STANDARD PLATE) is “inactive; negative”; the mutagenic call (Test System: AMES SALMONELLA TYPHIMURIUM, Strain/Indicator: TA1537, Metabolic Activation: RAT, LIVER, S-9, AROCLOR 1254 (10%), Method: STANDARD PLATE) is “inactive; negative”. In addition, the mutagenic call by setting is: (Test System: AMES SALMONELLA TYPHIMURIUM, Strain/Indicator: TA1538, Metabolic Activation: HAMSTER, LIVER, S-9, AROCLOR 1254 (10%), Method: STANDARD PLATE) “inactive; negative”; (Test System: AMES SALMONELLA TYPHIMURIUM, Strain/Indicator: TA1538, Metabolic Activation: NONE, Method: STANDARD PLATE) “inactive; negative”; (Test System: AMES SALMONELLA TYPHIMURIUM, Strain/Indicator: TA1538, Metabolic Activation: RAT, LIVER, S-9, AROCLOR 1254 (10%), Method: STANDARD PLATE) “inactive; negative”; (Test System: MOUSE LYMPHOMA, Strain/Indicator: L5178Y (TK+/TK-), Metabolic Activation: NONE, Method: SUSPENSION/PLATE) “inactive; negative”; (Test System: MOUSE LYMPHOMA, Strain/Indicator: L5178Y (TK+/TK-), Metabolic Activation: RAT, LIVER, S-9, AROCLOR 1254, Method: SUSPENSION/PLATE) “active; positive”.

Consider `CCCCCCCCCCCC(=O)N(CCO)CCO`, for which the mutagenic call reads like this: (End Point: IN VITRO CHROMOSOMAL ABERRATIONS, Test System: CHO-LB CELLS, Metabolic Activation: NONE) “inactive; negative”; (End Point: IN VITRO CHROMOSOMAL ABERRATIONS, Test System: CHO-LB CELLS, Metabolic Activation: RAT, LIVER, S-9, AROCLOR 1254) “inactive; negative”; (Test System: AMES SALMONELLA TYPHIMURIUM, Strain/Indicator: TA97, Metabolic Activation: HAMSTER, LIVER, S-9, AROCLOR 1254 (10%), Method: PREINCUBATION) “inactive; negative”; (Test System: AMES SALMONELLA TYPHIMURIUM, Strain/Indicator: TA97, Metabolic Activation: HAMSTER, LIVER, S-9, AROCLOR 1254 (30%), Method: PREINCUBATION) “inactive; negative”; (Test System: AMES SALMONELLA TYPHIMURIUM, Strain/Indicator: TA97, Metabolic Activation: NONE, Method: PREINCUBATION) “inactive; negative”; (Test System: AMES SALMONELLA TYPHIMURIUM, Strain/Indicator: TA97, Metabolic Activation: RAT, LIVER, S-9, AROCLOR 1254 (10%), Method: PREINCUBATION) “inactive; negative”. Also, the mutagenic call reads like this: (Test System: AMES SALMONELLA TYPHIMURIUM, Strain/Indicator: TA97, Metabolic Activation: RAT, LIVER, S-9, AROCLOR 1254 (30%), Method: PREINCUBATION) “inactive; negative”; (Test System: AMES SALMONELLA TYPHIMURIUM, Strain/Indicator: TA98, Metabolic Activation: HAMSTER, LIVER, S-9, AROCLOR 1254 (10%), Method: PREINCUBATION) “inactive; negative”; (Test System: AMES SALMONELLA TYPHIMURIUM, Strain/Indicator: TA98, Metabolic Activation: HAMSTER, LIVER, S-9, AROCLOR 1254 (30%), Method: PREINCUBATION) “inactive; negative”; (Test System: AMES SALMONELLA TYPHIMURIUM, Strain/Indicator: TA98, Metabolic Activation: NONE, Method: PREINCUBATION) “inactive; negative”; (Test System: AMES SALMONELLA TYPHIMURIUM, Strain/Indicator: TA98, Metabolic Activation: RAT, LIVER, S-9, AROCLOR 1254 (10%), Method: PREINCUBATION) “inactive; negative”; (Test System: AMES SALMONELLA TYPHIMURIUM, Strain/Indicator: TA98, Metabolic Activation: RAT, LIVER, S-9, AROCLOR 1254 (30%), Method: PREINCUBATION) “inactive; negative”. Moreover, the mutagenic call is, setting by setting: (Test System: AMES SALMONELLA TYPHIMURIUM, Strain/Indicator: TA100, Metabolic Activation: HAMSTER, LIVER, S-9, AROCLOR 1254 (10%), Method: PREINCUBATION) “inactive; negative”; (Test System: AMES SALMONELLA TYPHIMURIUM, Strain/Indicator: TA100, Metabolic Activation: HAMSTER, LIVER, S-9, AROCLOR 1254 (30%), Method: PREINCUBATION) “inactive; negative”; (Test System: AMES SALMONELLA TYPHIMURIUM, Strain/Indicator: TA100, Metabolic Activation: NONE, Method: PREINCUBATION) “inactive; negative”; (Test System: AMES SALMONELLA TYPHIMURIUM, Strain/Indicator: TA100, Metabolic Activation: RAT, LIVER, S-9, AROCLOR 1254 (10%), Method: PREINCUBATION) “inactive; negative”; (Test System: AMES SALMONELLA TYPHIMURIUM, Strain/Indicator: TA100, Metabolic Activation: RAT, LIVER, S-9, AROCLOR 1254 (30%), Method: PREINCUBATION) “inactive; negative”; (Test System: AMES SALMONELLA TYPHIMURIUM, Strain/Indicator: TA1535, Metabolic Activation: HAMSTER, LIVER, S-9, AROCLOR 1254 (10%), Method: PREINCUBATION) “inactive; negative”. Moreover, the mutagenic call reads like this: (Test System: AMES SALMONELLA TYPHIMURIUM, Strain/Indicator: TA1535, Metabolic Activation: HAMSTER, LIVER, S-9, AROCLOR 1254 (30%), Method: PREINCUBATION) “inactive; negative”; (Test System: AMES SALMONELLA TYPHIMURIUM, Strain/Indicator: TA1535, Metabolic Activation: NONE, Method: PREINCUBATION) “inactive; negative”; (Test System: AMES SALMONELLA TYPHIMURIUM, Strain/Indicator: TA1535, Metabolic Activation: RAT, LIVER, S-9, AROCLOR 1254 (10%), Method: PREINCUBATION) “inactive; negative”; (Test System: AMES SALMONELLA TYPHIMURIUM, Strain/Indicator: TA1535, Metabolic Activation: RAT, LIVER, S-9, AROCLOR 1254 (30%), Method: PREINCUBATION) “inactive; negative”.

Take `O[C@H]1C=Cc2c(ccc3ncccc23)[C@@H]1O`: the mutagenic call (Test System: AMES SALMONELLA TYPHIMURIUM, Strain/Indicator: TA100, Metabolic Activation: RAT, LIVER, S-9, AROCLOR 1254, Method: STANDARD PLATE) was “inactive; negative”.

Take `CC(Br)(CO)CBr` (centres undefined): the mutagenic call under setting [2] was “inactive; negative”.

Consider `Cc1cc2c(nc(N)n2C)c2nc(-c3ccccc3)cnc12`, for which the mutagenic call (Test System: AMES SALMONELLA TYPHIMURIUM, Strain/Indicator: TA98, Metabolic Activation: RAT, LIVER, S-9, AROCLOR 1254, Method: STANDARD PLATE) is “active; positive”.

Take `O=[N+]([O-])c1c2c(c3ccc4cccc5ccc1c3c45)CCCC2`: the mutagenic call by setting is: under setting [1], “inactive; negative”; under setting [2], “inactive; negative”.

`N#[N+]c1ccc(CO)cc1`: the mutagenic call was “active; positive” under setting [3] and “active; positive” (Test System: CHINESE HAMSTER V-79, Strain/Indicator: V-79/6-THIOGUANINE, Metabolic Activation: NONE).

In the case of `CN1CCN(c2ccc3nc(-c4ccc5nc(-c6ccc(O)cc6)[nH]c5c4)[nH]c3c2)CC1`, the mutagenic call was “inactive; negative” under setting [1], “inactive; negative” under setting [2] and “inactive; negative” under setting [3].
